# Source: paper PMC6454709, “Application of WST-8 based colorimetric NAD(P)H detection for quantitative dehydrogenase assays” (BMC Biochemistry, 2019)
# Like-named read-outs stand apart in the source and are kept apart here.
# Tested on: T1, Bacillus GDH
# T1 construct: commercial enzyme from GDH activity colorimetric assay kit (Biovision)
# Assay: WST-8/1-mPMS formazan assay, […] nm, Michaelis-Menten fit
# Type: biochemical
# Conditions: 20 mM Tris-HCl pH 9.0, 37 °C
Structure (SMILES),"Km (1 mM NAD+, read-out: KM (mM) / Glucose) [mM]","Km (250 mM glucose, read-out: KM (mM) / NAD^+) [mM]"
OC[C@H]1OC(O)[C@H](O)[C@@H](O)[C@@H]1O (stereo partly drawn) [D-(+)-glucose],17.1 ± 2,–
NC(=O)c1ccc[n+]([C@@H]2O[C@H](COP(=O)(O)OP(=O)(O)OC[C@H]3O[C@@H](n4cnc5c(N)ncnc54)[C@H](O)[C@@H]3O)[C@@H](O)[C@H]2O)c1 [NAD^+],–,0.271 ± 0.027
